Experimental data taken from patent publication US11834489B2 (priority 2017, dated 2023).

Legend:
[1] = target: Cy3B*/Cy7*-labelled β2Δ6-N148C/L266C with Gs(GDP) (Homo sapiens, UniProt P07550, C265A/C327S/C341L/C378A/C406A/C77V/L266C/N148C); type: biochemical; conditions: transition rate from high- to low-FRET states; saturating ligand, 30 μM GDP, Gs titration
β2AR-Gs complex = β2AR-Gs complex (Homo sapiens, UniProt P07550, C265A/C327S/C341L/C378A/C406A/C77V/L266C/N148C); type: biochemical; conditions: normalized to adrenaline
[2] = target: labelled β2AR and biotinylated Gs (Homo sapiens, UniProt P07550, C265A/C327S/C341L/C378A/C406A/C77V/L266C/N148C); type: biochemical; conditions: mean ± s.e.m.
β2AR = conditions: compared to salbutamol, reference 27; cited from earlier work

## CNCC(O)c1ccc(O)c(O)c1 (centres unmarked) [ADR, adrenaline]
[1]
  khigh→low: 0.7 s⁻¹
β2AR-Gs complex; apparent EC50 for GDP binding
  η2: 1.0
β2AR-Gs complex; product of apparent kon and khigh→low
  η1: 1.0
[2]; after addition of 30 μM GDP
  Lifetime, Biotin-Gs-immobilized, +GDP: 11.8 ± 1.2 s
[2]; after addition of 100 μM GTP
  Lifetime, Biotin-Gs-immobilized, +GTP: 6.4 ± 0.1 s
[2]; biotin-M1-Fab-immobilized β2AR in the absence of Gs
  Lifetime, M1-immobilized: 13.2 ± 3.4 min
[2]; nucleotide-free state
  Lifetime, Biotin-Gs-immobilized, GNP-free: 11.2 ± 5.1 min
β2AR
  extent of [3H]GDP release: greater extent of [^3H]GDP release
